Literature values in patent US9833411B2, “Solid oral dosage forms” (Enteris Biopharma, Inc., priority 2015, dated 2017).
In brackets after ≈: the same amount, converted by molar mass.

Legend:
[1] = test system: Methicillin-Resistant Staphylococcus aureus (MRSA), Stenotrophomonas maltophilia, Haemophilus influenzae, and Neisseria gonorrhoeae; settings: values reported
[2] = known formulations

Q: What does the source list for `CN(C)c1cc(NC(=O)CNC(C)(C)C)c(O)c2c1C[C@H]1C[C@H]3[C@H](N(C)C)C(O)=C(C(N)=O)C(=O)[C@@]3(O)C(O)=C1C2=O` [Tigecycline]?
A: aqueous solubility: approximately 300 mg/mL; MIC [1]: 2 µg/mL (≈ 3.41 µM); maximal oral bioavailability % (% F) [2]: less than 5%
